# Assays:
# Carboplatin = compound: C1CC(C1)(C(=O)[O-])C(=O)[O-].N.N.[Pt+2] [Carboplatin]; conditions: max 10 µM
# Outline: (§1)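 Cancer cell lines were dosed for 72 hours (final DMSO typically 0.2%) after 24 hours at 37°C and 5% CO2 in 1536-well plates containing 7.5 μl DMEM/F12 or RPMI with 10% FBS. Viability came from CellTiter-Glo 2.0 luminescence, scaled between blank-well and DMSO-well means, and dose responses were fitted to a two-parameter logistic curve with a non-linear mixed effects model. The single-agent IC50 was obtained from this fit.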
# AZD5363 = compound: C1CN(CCC1(C(=O)N[C@@H](CCO)C2=CC=C(C=C2)Cl)N)C3=NC=NC4=C3C=CN4 [AZD5363]; conditions: max 10 µM
# Outline: as §1
# AZD1775 = compound: C=CCn1c(=O)c2cnc(Nc3ccc(N4CCN(C)CC4)cc3)nc2n1-c1cccc(C(C)(C)O)n1 [AZD1775]; conditions: max 3 µM
# Outline: as §1
# Trametinib = compound: CC(=O)Nc1cccc(-n2c(=O)n(C3CC3)c(=O)c3c(Nc4ccc(I)cc4F)n(C)c(=O)c(C)c32)c1 [Trametinib]; conditions: max 1 µM
# Outline: as §1
# Paclitaxel = compound: CC(=O)O[C@H]1C(=O)[C@@]2(C)[C@H]([C@H](OC(=O)c3ccccc3)[C@]3(O)C[C@H](OC(=O)[C@H](O)[C@@H](NC(=O)c4ccccc4)c4ccccc4)C(C)=C1C3(C)C)[C@]1(OC(C)=O)CO[C@@H]1C[C@@H]2O [Paclitaxel]; conditions: max 3 µM
# Outline: as §1
# Palbociclib = compound: CC(=O)c1c(C)c2cnc(Nc3ccc(N4CCNCC4)cn3)nc2n(C2CCCC2)c1=O [Palbociclib]; conditions: max 10 µM
# Outline: as §1
# AZD1390 = compound: CC(C)n1c(=O)n(C)c2cnc3cc(F)c(-c4ccc(OCCCN5CCCCC5)nc4)cc3c21 [AZD1390]; conditions: max 0.3 µM
# Outline: as §1
# Venetoclax = compound: CC1(C)CCC(CN2CCN(c3ccc(C(=O)NS(=O)(=O)c4ccc(NCC5CCOCC5)c([N+](=O)[O-])c4)c(Oc4cnc5[nH]ccc5c4)c3)CC2)=C(c2ccc(Cl)cc2)C1 [Venetoclax]; conditions: max 1 µM
# Outline: as §1
# Dasatinib = compound: CC1=C(C(=CC=C1)Cl)NC(=O)C2=CN=C(S2)NC3=CC(=NC(=N3)C)N4CCN(CC4)CCO [Dasatinib]; conditions: max 2 µM
# Outline: as §1
# SG3199 = compound: CC1=CN2[C@@H](C1)C=NC3=CC(=C(C=C3C2=O)OC)OCCCCCOC4=C(C=C5C(=C4)N=C[C@@H]6CC(=CN6C5=O)C)OC [SG3199]; conditions: max 0.001 µM
# Outline: as §1
# AZD2811 = compound: CCN(CCO)CCCOc1ccc2c(Nc3cc(CC(=O)Nc4cccc(F)c4)[nH]n3)ncnc2c1 [AZD2811]; conditions: max 1 µM
# Outline: as §1
# SN-38 = compound: CCc1c2c(nc3ccc(O)cc13)-c1cc3c(c(=O)n1C2)COC(=O)[C@]3(O)CC [SN-38]; conditions: max 0.3 µM
# Outline: as §1
# AZD0156 = compound: CN(C)CCCOc1ccc(-c2ccc3ncc4c(c3c2)n(C2CCOCC2)c(=O)n4C)cn1 [AZD0156]; conditions: max 3 µM
# Outline: as §1
# AZD4320 = compound: CN(CC[C@H](CSC1=CC=CC=C1)NC2=C(C=C(C=C2)S(=O)(=O)NC(=O)C3=CC=C(C=C3)N4CCC(CC4)[C@H](C5=CC=CC=C5C6=CC=C(C=C6)Cl)O)S(=O)(=O)C(F)(F)F)CCO [AZD4320]; conditions: max 1 µM
# Outline: as §1
# Alisertib = compound: COc1cc(Nc2ncc3c(n2)-c2ccc(Cl)cc2C(c2c(F)cccc2OC)=NC3)ccc1C(=O)O [Alisertib]; conditions: max 10 µM
# Outline: as §1
# Etoposide = compound: COc1cc([C@@H]2c3cc4c(cc3[C@@H](O[C@@H]3O[C@@H]5CO[C@@H](C)O[C@H]5[C@H](O)[C@H]3O)[C@H]3COC(=O)[C@H]23)OCO4)cc(OC)c1O [Etoposide]; conditions: max 10 µM
# Outline: as §1
# Gefitinib = compound: COc1cc2ncnc(Nc3ccc(F)c(Cl)c3)c2cc1OCCCN1CCOCC1 [Gefitinib]; conditions: max 10 µM
# Outline: as §1
# Prexasertib = compound: COc1cccc(OCCCN)c1-c1cc(Nc2cnc(C#N)cn2)n[nH]1 [Prexasertib]; conditions: max 1 µM
# Outline: as §1
# Doxorubicin = compound: COc1cccc2c1C(=O)c1c(O)c3c(c(O)c1C2=O)C[C@@](O)(C(=O)CO)C[C@@H]3O[C@H]1C[C@H](N)[C@H](O)[C@H](C)O1 [Doxorubicin]; conditions: max 1 µM
# Outline: as §1
# AZD5153 = compound: COc1nnc2ccc(N3CCC(c4ccc(OCCN5CCN(C)C(=O)[C@H]5C)cc4)CC3)nn12 [AZD5153]; conditions: max 1 µM
# Outline: as §1
# Lapatinib = compound: CS(=O)(=O)CCNCc1ccc(-c2ccc3ncnc(Nc4ccc(OCc5cccc(F)c5)c(Cl)c4)c3c2)o1 [Lapatinib]; conditions: max 10 µM
# Outline: as §1
# AZD8186 = compound: C[C@@H](Nc1cc(F)cc(F)c1)c1cc(C(=O)N(C)C)cc2c(=O)cc(N3CCOCC3)oc12 [AZD8186]; conditions: max 10 µM
# Outline: as §1
# Crizotinib = compound: C[C@@H](Oc1cc(-c2cnn(C3CCNCC3)c2)cnc1N)c1c(Cl)ccc(F)c1Cl [Crizotinib]; conditions: max 10 µM
# Outline: as §1
# Savolitinib = compound: C[C@@H](c1ccc2nccn2c1)n1nnc2ncc(-c3cnn(C)c3)nc21 [Savolitinib]; conditions: max 1 µM
# Outline: as §1
# AZD6738 = compound: C[C@@H]1COCCN1C2=NC(=NC(=C2)C3(CC3)[S@](=N)(=O)C)C4=C5C=CNC5=NC=C4 [AZD6738]; conditions: max 10 µM
# Outline: as §1
# AZD5991 = compound: Cc1c2c(nn1C)CSCc1cc(n(C)n1)CSc1cc(c3ccccc3c1)OCCCc1c(C(=O)O)n(C)c3c-2c(Cl)ccc13 [AZD5991]; conditions: max 1 µM
# Outline: as §1
# AZD7648 = compound: Cc1cc2ncnn2cc1Nc1ncc2c(n1)n(C1CCOCC1)c(=O)n2C [AZD7648]; conditions: max 10 µM
# Outline: as §1
# Taselisib = compound: Cc1nc(-c2cn3c(n2)-c2ccc(-c4cnn(C(C)(C)C(N)=O)c4)cc2OCC3)n(C(C)C)n1 [Taselisib]; conditions: max 10 µM
# Outline: as §1
# Selumetinib = compound: Cn1cnc2c(F)c(Nc3ccc(Br)cc3Cl)c(C(=O)NOCCO)cc21 [Selumetinib]; conditions: max 10 µM
# Outline: as §1
# SRA737 = compound: N#Cc1cnc(Nc2cc(NC[C@H]3CNCCO3)c(C(F)(F)F)cn2)cn1 [SRA737]; conditions: max 10 µM
# Outline: as §1
# MK-2206 = compound: NC1(c2ccc(-c3nc4ccn5c(=O)[nH]nc5c4cc3-c3ccccc3)cc2)CCC1 [MK-2206]; conditions: max 10 µM
# Outline: as §1
# Gemcitabine = compound: Nc1ccn([C@@H]2O[C@H](CO)[C@@H](O)C2(F)F)c(=O)n1 [Gemcitabine]; conditions: max 0.3 µM
# Outline: as §1
# [1] = compound: O=C(Nc1ccc2[nH]nc(-c3ccncc3)c2c1)[C@@H]1CCN(CC(=O)N2CCN(c3ccc(-c4ncccn4)cc3)CC2)C1; conditions: max 5 µM
# Outline: as §1
# Olaparib = compound: O=C(c1cc(Cc2n[nH]c(=O)c3ccccc23)ccc1F)N1CCN(C(=O)C2CC2)CC1 [Olaparib]; conditions: max 10 µM
# Outline: as §1
# 5-Fluorouracil = compound: O=c1[nH]cc(F)c(=O)[nH]1 [5-Fluorouracil]; conditions: max 20 µM
# Outline: as §1
cell line,measurement,setting,value
TE-9 (Esophageal Squamous Cell Carcinoma),"IC50, cell viability 72 h",Carboplatin,> 10 µM
same,"IC50, cell viability 72 h",AZD5363,> 10 µM
same,"IC50, cell viability 72 h",AZD1775,1.15 µM
same,"IC50, cell viability 72 h",Trametinib,> 1 µM
same,"IC50, cell viability 72 h",Paclitaxel,0.068 µM
same,"IC50, cell viability 72 h",Palbociclib,> 10 µM
same,"IC50, cell viability 72 h",AZD1390,> 0.3 µM
same,"IC50, cell viability 72 h",Venetoclax,> 1 µM
same,"IC50, cell viability 72 h",Dasatinib,> 2 µM
same,"IC50, cell viability 72 h",SG3199,> 0.001 µM
same,"IC50, cell viability 72 h",AZD2811,> 1 µM
same,"IC50, cell viability 72 h",SN-38,> 0.3 µM
same,"IC50, cell viability 72 h",AZD0156,> 3 µM
same,"IC50, cell viability 72 h",AZD4320,> 1 µM
same,"IC50, cell viability 72 h",Alisertib,> 10 µM
same,"IC50, cell viability 72 h",Etoposide,> 10 µM
same,"IC50, cell viability 72 h",Gefitinib,> 10 µM
same,"IC50, cell viability 72 h",Prexasertib,0.548 µM
same,"IC50, cell viability 72 h",Doxorubicin,> 1 µM
same,"IC50, cell viability 72 h",AZD5153,> 1 µM
same,"IC50, cell viability 72 h",Lapatinib,> 10 µM
same,"IC50, cell viability 72 h",AZD8186,> 10 µM
same,"IC50, cell viability 72 h",Crizotinib,> 10 µM
same,"IC50, cell viability 72 h",Savolitinib,> 1 µM
same,"IC50, cell viability 72 h",AZD6738,> 10 µM
same,"IC50, cell viability 72 h",AZD5991,> 1 µM
same,"IC50, cell viability 72 h",AZD7648,> 10 µM
same,"IC50, cell viability 72 h",Taselisib,> 10 µM
same,"IC50, cell viability 72 h",Selumetinib,> 10 µM
same,"IC50, cell viability 72 h",SRA737,> 10 µM
same,"IC50, cell viability 72 h",MK-2206,> 10 µM
same,"IC50, cell viability 72 h",Gemcitabine,> 0.3 µM
same,"IC50, cell viability 72 h",[1],> 5 µM
same,"IC50, cell viability 72 h",Olaparib,> 10 µM
same,"IC50, cell viability 72 h",5-Fluorouracil,> 20 µM
UM-UC-3 (Bladder Carcinoma),"IC50, cell viability 72 h",Carboplatin,> 10 µM
same,"IC50, cell viability 72 h",AZD5363,> 10 µM
same,"IC50, cell viability 72 h",AZD1775,> 3 µM
same,"IC50, cell viability 72 h",Trametinib,> 1 µM
same,"IC50, cell viability 72 h",Paclitaxel,0.066 µM
same,"IC50, cell viability 72 h",Palbociclib,> 10 µM
same,"IC50, cell viability 72 h",AZD1390,> 0.3 µM
same,"IC50, cell viability 72 h",Venetoclax,> 1 µM
same,"IC50, cell viability 72 h",Dasatinib,> 2 µM
same,"IC50, cell viability 72 h",SG3199,> 0.001 µM
same,"IC50, cell viability 72 h",AZD2811,> 1 µM
same,"IC50, cell viability 72 h",SN-38,0.0153 µM
same,"IC50, cell viability 72 h",AZD0156,> 3 µM
same,"IC50, cell viability 72 h",AZD4320,> 1 µM
same,"IC50, cell viability 72 h",Alisertib,> 10 µM
same,"IC50, cell viability 72 h",Etoposide,3.45 µM
same,"IC50, cell viability 72 h",Gefitinib,> 10 µM
same,"IC50, cell viability 72 h",Prexasertib,0.799 µM
same,"IC50, cell viability 72 h",Doxorubicin,> 1 µM
same,"IC50, cell viability 72 h",AZD5153,> 1 µM
same,"IC50, cell viability 72 h",Lapatinib,> 10 µM
same,"IC50, cell viability 72 h",AZD8186,> 10 µM
same,"IC50, cell viability 72 h",Crizotinib,> 10 µM
same,"IC50, cell viability 72 h",Savolitinib,> 1 µM
same,"IC50, cell viability 72 h",AZD6738,> 10 µM
same,"IC50, cell viability 72 h",AZD5991,> 1 µM
same,"IC50, cell viability 72 h",AZD7648,> 10 µM
same,"IC50, cell viability 72 h",Taselisib,8.32 µM
same,"IC50, cell viability 72 h",Selumetinib,> 10 µM
same,"IC50, cell viability 72 h",SRA737,> 10 µM
same,"IC50, cell viability 72 h",MK-2206,> 10 µM
same,"IC50, cell viability 72 h",Gemcitabine,0.0582 µM
same,"IC50, cell viability 72 h",[1],> 5 µM
same,"IC50, cell viability 72 h",Olaparib,> 10 µM
same,"IC50, cell viability 72 h",5-Fluorouracil,> 20 µM

# Reference: the supplement of paper PMC11061612
